# Legend:
# [1] = test system: LPS-activated neurons in the cNST; assay: Chemogenetic activation of LPS-TRAPed cNST neurons, cytokines; type: in vivo, mice
# Procedure: (§1) All stereotaxic surgery procedures were carried out using aseptic technique. […] The viral constructs were injected into the cNST through a small craniotomy. The injection coordinates (based on Paxinos stereotaxic coordinates) for virus delivery in the cNST were as follows: caudal 7.5 mm, lateral ±0.3 mm, ventral 3.7-4 mm, all relative to Bregma. In chemogenetic experiments, TRAP2, Dbh-cre, Vglut2-cre and Vgat-cre mice received bilateral injections of 200 nl of AAV9-Syn-DIO-hM3Dq (Addgene, #44361-AAV9) and 300 nl of AAV9-Syn-DIO-hM4Di (Addgene, #44362-AAV9) in the cNST. Equivalent volumes of AAV9-Syn-DIO-mCherry (Addgene, #50459-AAV9) were injected as controls. For fiber photometry experiments, Vglut2-cre mice were unilaterally injected with 100 nl of AAV9-Syn-Flex-GCaMP6s (Addgene, #100845-AAV9) in the cNST, and an optical fiber (400 μm core, 0.48 NA, Doric Lenses) was implanted 50-100 μm above the GCaMP virus injection site.
# (§2) The TRAP strategy was used in TRAP2 mice to gain genetic access to LPS-activated neurons in the cNST. […]
# (§3) When using TRAP2 animals, at least 4 weeks elapsed between TRAPing and CNO treatment. […] Cytokines in the blood were measured using commercially available ELISA kits (R&D), following manufacturer's instructions. […]
# cNST neurons [2] = assay: Fos induction in the cNST after intraperitoneal immune stimulation; type: in vivo, mice; conditions: for Fos induction in the cNST: intraperitoneal injection, brains taken 2 h later
# Procedure: (§4) Mice housed in their home cages were injected intraperitoneally with lipopolysaccharide (LPS, 50 μg kg-1, Cell Signaling Technology, #14011), lipoteichoic acid (LTA, 1 mg kg-1 Sigma, #L2512), Flagellin (20 μg kg-1, Sigma Aldrich #SRP8029), Profilin (20 μg kg-1, Sigma Aldrich, #SRP8050), Zymosan (2.5 mg kg-1, Sigma Aldrich #Z4250), IL-10 (100 μg kg-1, BioLegend, #575804), a cocktail of IL-6 (100 μg kg-1, BioLegend #575706), IL-1β (100 μg kg-1, R&D, #401-ML) and TNF-α (100 μg kg-1, R&D, #410-MT), or saline control (0.9% NaCl), then 2 h later, perfused transcardially with PBS followed by 4% paraformaldehyde. Brains were dissected, fixed in 4% PFA overnight at 4° C., and then sliced coronally at 100 μm thickness. The brain sections were permeabilized and blocked with 10% normal donkey serum (EMD Millipore, #S30) in PBS containing 0.3% Triton X-100. Sections were incubated with an anti-Fos primary antibody (SYSY, #226004 guinea pig, diluted 1:5,000) at 4° C. overnight, followed by labeling with a secondary antibody (Alexa Fluor 647-conjugated donkey anti-guinea pig, Jackson ImmunoResearch, #706605148) at room temperature for 2 h. For double RNA in situ hybridization, fixed frozen nodose ganglia or brains were sectioned at 16 μm thickness and processed for mRNA detection using the RNAscope Fluorescent Multiplex Kit (Advanced Cell Diagnostics) following the manufacturer's instructions. The following RNAscope probes were used: Fos (#316921-C2), Dbh (#464621-C1), Trpa1 (#400211-C3) and Calca (#578771-C2), GFP (#400281-C1). Images were acquired using an Olympus FluoView 1000 confocal microscope. Quantification of fluorescent signals was carried out by manually counting the number of positive neurons.
# vagal sensory neurons = assay: Vagal calcium imaging of nodose ganglion (GCaMP6s in all vagal sensory neurons); type: in vivo, mice; conditions: for number of responding vagal sensory neurons: of 423 imaged vagal sensory neurons, cytokine intraperitoneal; for calcium activity in a subset of vagal sensory neurons: intraperitoneal cytokine, nodose ganglion
# Procedure: (§5) Calcium imaging of the nodose ganglion was conducted as described previously (Li, M. et al. Nature 610, 722-730, (2022); Tan, H. E. et al. Nature 580, 511-516, (2020)). For imaging in response to intragastric delivery of glucose (or linoleic acid), and IP injections of saline control and cytokines, a typical recording session consisted of: 1st: saline; 2nd: one of the three pro-inflammatory cytokines (TNF-α, IL-1β or IL-6); 3rd: anti-inflammatory cytokine (IL-10); 4th and 5th: two trials with glucose (or linoleic acid); each trial was 5 min. Cytokines were injected 1 min after the onset of the recording. Glucose (500 mM) and linoleic acid (10%) was delivered intragastrically. For all experiments 100 μg kg-1 of each cytokine was used. To deliver cytokines […], a segment of the intestine was placed in a custom-made perfusion chamber while still keeping it connected to the remainder of the gastrointestinal tract (no carbogenation). Each recording session included six interleaved trials, with 2 trials for each stimulus. Trials were 15 mins long, and consisted of a 180-s baseline (saline), a 180-s cytokine or control stimulus, and a 9-min washout (saline) period. The flow rates were maintained at around 600 μl min-1 throughout the experiment to minimize mechanical responses that may occur during the transition between trials. Cytokines were dissolved in saline at the concentration of 1 μg ml-1. During the entire perfusion session, all of the solutions were maintained at 37° C.
# Imaging data was acquired exactly as previously described (Li, M. et al. Nature 610, 722-730, (2022); Tan, H. E. et al. Nature 580, 511-516, (2020)). Neuronal activity was analyzed for significant stimulus-evoked responses as described. The baseline distribution of deviations was first computed from the median for each cell throughout the entire experiment using periods prior to the stimulus delivery. Subsequently, this baseline was utilized to derive a modified z-score by subtracting the median and dividing by the median absolute deviation. Trials with an average modified z-score above 1.6 for the 180s (stimuli delivered via IP) or 480s (stimuli delivered via perfusion) following the initiation of stimulation were classified as responding trials (all responders had minimal peak amplitudes of 1% ΔF/F). Z-scores from responders were normalized across stimuli to generate heat maps of normalized fluorescence traces.
# circulating cytokines = assay: LPS-induced circulating cytokines in peripheral blood by ELISA; type: in vivo, mice
# Procedure: When using TRAP2 animals, at least 4 weeks elapsed between TRAPing and CNO treatment. Two doses (2 mg kg-1 and 1 mg kg-1) of CNO were given intraperitoneally at 12 h and 1 h prior to saline or LPS stimulation. Two hours after the intraperitoneal injection of saline or LPS (0.1 mg kg-1), blood samples were collected from either the submandibular or the tail vein. Cytokines in the blood were measured using commercially available ELISA kits (R&D), following manufacturer's instructions. Saline and LPS experiments were conducted on the same cohort of mice but at least 7 days apart.
# To examine LPS-induced cytokine responses over time, wild-type (C56BL/6J) mice were injected IP with saline or LPS, and peripheral blood samples were collected at 0, 2 hours, 4 hours, and 6 hours post-stimulation.
# DBH neurons in the cNST = assay: Fos induction in DBH neurons in the cNST by LPS and cytokine stimulation; type: in vivo; conditions: Dbh-cre mice, intraperitoneal injection
# Procedure: as §4, with “For double RNA in situ hybridization, fixed frozen nodose ganglia or brains were sectioned at 16 μm thickness and processed for mRNA detection using the RNAscope Fluorescent Multiplex Kit (Advanced Cell Diagnostics) following the manufacturer's instructions. The following RNAscope probes were used: Fos (#316921-C2), Dbh (#464621-C1), Trpa1 (#400211-C3) and Calca (#578771-C2), GFP (#400281-C1). Images were acquired using an Olympus FluoView 1000 confocal microscope.” left out
# [3] = test system: LPS-activated neurons in the cNST; assay: Chemogenetic inhibition of LPS-TRAPed cNST neurons, LPS-evoked cytokines; type: in vivo, mice; design: unit not given here; conditions: LPS-treated but not silenced animals
# Procedure: as §1, §2, §3
# cNST neurons [4] = assay: Fiber photometry of LPS-evoked activity in the cNST (GCaMP6s, Vglut2-cre mice); type: in vivo
# Procedure: as §1
# Photometry experiments were conducted at least 14 days after the stereotaxic viral injection and fiber implantation (see the section on stereotaxic surgery for details). Prior to the experiments, mice were acclimated to the recording chamber for 1 h per day over 3 consecutive days. On the 4th and 5th day, mice were recorded for the bulk GCaMP responses to saline and LPS (0.5 mg kg-1), respectively, in a 5 h recording session. Saline and LPS were intraperitoneally injected 15 min after the onset of recording. Real-time population-level GCaMP fluorescence signals were detected, amplified and recorded using a RZ5P fiber photometry system with Synapse software (Tucker Davis Technologies). The collected data were downsampled, detrended and smoothed by custom MATLAB code. The calcium transients were identified as described previously (Barretto, R. P. et al. Nature 517, 373-376, (2015); Rousseeuw, P. J. C., C. J. Am. Stat. Assoc. 88, 1273-1283, (1993); Jin, H., Fishman, Z. H., Ye, M., Wang, L. & Zuker, C. S. Cell 184, 257-271 e216, (2021)) and the area under the curve (AUC) was calculated by integrating fluorescence signal under identified calcium transients. […]
# TRPA1 vagal neurons = assay: Calcium imaging of TRPA1 vagal neurons; type: in vivo, mice
# Procedure: as §5, with “Trials were 15 mins long, and consisted of a 180-s baseline (saline), a 180-s cytokine or control stimulus, and a 9-min washout (saline) period. The flow rates were maintained at around 600 μl min-1 throughout the experiment to minimize mechanical responses that may occur during the transition between trials. Cytokines were dissolved in saline at the concentration of 1 μg ml-1. During the entire perfusion session, all of the solutions were maintained at 37° C.” left out
# Imaging data was acquired exactly as previously described (Li, M. et al. Nature 610, 722-730, (2022); Tan, H. E. et al. Nature 580, 511-516, (2020)). Neuronal activity was analyzed for significant stimulus-evoked responses as described. […] Z-scores from responders were normalized across stimuli to generate heat maps of normalized fluorescence traces.
molecule,measurement,setting,value
"C[N+]1([O-])CCN(C2=Nc3cc(Cl)ccc3Nc3ccccc32)CC1 [CNO, clozapine N-oxide]","anti-inflammatory cytokines (IL-10), change on activation",[1],very large increase
same,"pro-inflammatory cytokines, change on activation",[1],dramatic suppression
Flagellin,Fos induction in the cNST,cNST neurons [2],robustly activated Fos
IL-1β: pro-inflammatory cytokine,number of responding vagal sensory neurons,vagal sensory neurons,8
Profilin,Fos induction in the cNST,cNST neurons [2],robustly activated Fos
lipopolysaccharide [LPS],cytokine induction in Myd88−/− mice,"circulating cytokines; IL-6, IL-1β, TNF-α, IL-10, 2 h after LPS",dramatically reduced
same,TNFa in the peripheral blood,circulating cytokines; control animals given LPS,200 pg/mL
same,direct activation of vagal neurons,vagal sensory neurons; LPS 0.5 mg kg-1,not directly activated
same,activation (Fos) of DBH neurons in the cNST,DBH neurons in the cNST,activate DBH neurons
same,IL-1β level,[3],200
same,IL-10 level,[3],750
same,reduction of average cNST response after vagotomy,cNST neurons [4]; LPS 0.5 mg kg-1,~80%
same,"cNST GCaMP6s response, AUC (area under the curve)","cNST neurons [4]; LPS 0.5 mg kg-1, after bilateral vagotomy",10.6±6.1
same,"cNST GCaMP6s response, AUC (area under the curve)","cNST neurons [4]; LPS 0.5 mg kg-1, intact vagus",52.6±7.2
same,Fos expression in the cNST of Myd88−/− mice,"cNST neurons [2]; Myd88−/− mice, LPS intraperitoneally, 2 h",largely absent
same,Fos induction in the cNST,cNST neurons [2],robustly activated Fos
lipoteichoic acid [LTA],Fos induction in the cNST,cNST neurons [2],robustly activated Fos
tumor necrosis factor [TNF-α],calcium activity in a subset of vagal sensory neurons,vagal sensory neurons,triggered robust activity
same,number of responding vagal sensory neurons,vagal sensory neurons,13
"interleukin-10 (protein, UniProt P22301 19-178, looked up, anti-inflammatory cytokine) Interleukin-10: SPGQGTQSENSCTHFPGNLPNMLRDLRDAFSRVKTFFQMKDQLDNLLLKESLLEDFKGYLGCQALSEMIQFYLEEVMPQAENQDPDIKAHVNSLGENLKTLRLRLRRCHRFLPCENKSKAVEQVKNAFNKLQEKGIYKAMSEFDIFINYIEAYMTMKIRN",number of responding vagal sensory neurons,vagal sensory neurons,11/423
same,activation (Fos) of DBH neurons in the cNST,DBH neurons in the cNST,activate DBH neurons
same,activation of TRPA1-expressing vagal neurons,TRPA1 vagal neurons; GCaMP6s imaging,activated
same,number of responding TRPA1 neurons,"TRPA1 vagal neurons; imaged TRPA1 neurons, IP or perfusion",27 of 189
same,Fos induction in the cNST,cNST neurons [2],induces significant Fos labelling
"interleukin-4 (protein, UniProt P05112 25-153, looked up, anti-inflammatory cytokine) Interleukin-4: HKCDITLQEIIKTLNSLTEQKTLCTELTVTDIFAASKNTTEKETFCRAATVLRQFYSHHEKDTRCLGATAQQFHRHKQLIRFLKRLDRNLWGLAGLNSCPVKEANQSTLENFLERLKTIMREKYSKCSS",calcium activity in a subset of vagal sensory neurons,vagal sensory neurons,triggered robust activity

# Reference: patent publication US20250287930A1, “REGULATION OF IMMUNE RESPONSES THROUGH SELECTIVE NEURAL ACTIVATION” (The Trustees of Columbia University in the City of New York, priority 2024, published 2025)
